According to patent publication US20100004293A1, “CRYSTALLINE FORMS OF ARYL-SUBSTITUTED PYRAZOLE-AMIDE COMPOUNDS” (Bristol-Myers Squibb Company, priority 2006, published 2010):
Values after ≈ are worked out from the molar mass of the structure shown. One block for each compound: values may come before it.

Assays:
[1] = moisture sorption study; assay type: physicochemical
Text: (§1) The available data establish the following RH range for equilibrium N-2/H-1 conversion: 25%<RHeq<=30%. Wetcakes subjected to RH<30% are subject to dehydration, kinetic factors notwithstanding.

[2] = slurry conversion studies at 25 and 50° C. and melting data (relative polymorph stability); assay type: physicochemical
[3] = dehydration/heating of monohydrate H-1; assay type: physicochemical
[4] = slurry conversion studies in butanol/water mixtures (N-2/H-1); assay type: physicochemical; conditions: N-2 versus H-1, butanol/water slurry
Text: as §1

[5] = aqueous solubility of crystalline forms; assay type: physicochemical
[6] = solid-state storage stability (temperature/humidity, HIL, filler excipients); assay type: physicochemical
Text: (§2) Based on the equilibrium RH studies, N-2 could undergo hydrate formation during handling, formulation or storage.

[7] = drying studies for H-1; assay type: physicochemical
Text: as §2

[8] = solvate stability by single crystal structure determination at different temperatures; assay type: physicochemical; conditions: solvent site fully occupied at −50° C., still 50% occupied at +82° C.
Text: In addition to the monohydrate, Compound I also forms solvates with a large number of organic solvents. The type 3 family of solvates (represented by an EtOAc solvate, form EA.5-3; a PrOAc solvate, form PA.5-3; a MeCN solvate, form AN-3; and a CH2CL2 solvate, DC-3) have a large hydrophobic clathrate channel (V˜215 Å^3) parallel to the crystallographic a repeat. […] The single crystal structures of an ethanol solvate (E-8), an isopropanol solvate (IPA-10), a second acetonitrile form (AN-11) and three mixed solvates (SA-9, SB-12, SC-13) with THF and water have been determined.

[9] = monkey PK crossover study; assay type: in vivo; conditions: monkey PK crossover study (n=4)
Text: as §2

[10] = exposed to HIL for at least 1 week
[11] = stored at 50° C./75% RH open and closed for at least 4 weeks

water sorption, ascending RH run ([1]; between 75 and 95% RH): partially rehydrates to H-1
Structure (SMILES): Cc1ccc(C(=O)NC2CC2)cc1NC(=O)c1cnn(-c2ncccc2C(F)(F)F)c1C [dehydrated H-1]

Structure (SMILES): Cc1ccc(C(=O)NC2CC2)cc1NC(=O)c1cnn(-c2ncccc2C(F)(F)F)c1C [Form N-7, N-(5-(cyclopropylcarbamoyl)-2-methylphenyl)-5-methyl-1-(3-(trifluoromethyl)pyridin-2-yl)-1H-pyrazole-4-carboxamide]
relative stability of N-7 (monotropic with N-2, N-5 and N-6) ([2]; versus N-2, N-5 and N-6): less stable at all temperatures below 192 °C

form conversion upon heating ([3]; 90° C., 30 m, to neat form T1H1 (N-7)): converts topotactically
stability under reduced humidity ([3]; reduced humidity): unstable
RH at which the form is the more stable form [4]: ≥ 30%
hygroscopicity ([1]; about 35 to about 75% RH): essentially non-hygroscopic
water sorption, descending RH run ([1]; at 25% RH): partially dehydrated
aqueous solubility [5]: 7 µg/mL (≈ 15.8 µM)
chemical and physical stability in the solid-state [6, 10]: chemically and physically stable
chemical and physical stability in the solid-state [6, 11]: chemically and physically stable
form conversion on drying ([7]; dryer at 20-30% RH): no conversion was observed
form conversion on drying ([7]; dryer maintained at 40° C. at RH 2.4-3.4%): converted to N-7
Structure (SMILES): Cc1ccc(C(=O)NC2CC2)cc1NC(=O)c1cnn(-c2ncccc2C(F)(F)F)c1C [Form H-1, N-(5-(cyclopropylcarbamoyl)-2-methylphenyl)-5-methyl-1-(3-(trifluoromethyl)pyridin-2-yl)-1H-pyrazole-4-carboxamide]

relative stability N-5:N-6 (monotropes) ([2]; N-5 versus N-6): more stable
Structure (SMILES): Cc1ccc(C(=O)NC2CC2)cc1NC(=O)c1cnn(-c2ncccc2C(F)(F)F)c1C [Form N-5, N-(5-(cyclopropylcarbamoyl)-2-methylphenyl)-5-methyl-1-(3-(trifluoromethyl)pyridin-2-yl)-1H-pyrazole-4-carboxamide]

stability of solvate [8]: relatively stable
Structure (SMILES): Cc1ccc(C(=O)NC2CC2)cc1NC(=O)c1cnn(-c2ncccc2C(F)(F)F)c1C [Form M-4]

relative stability among polymorphic (neat) forms ([2]; at 25° C. and 50° C.): most stable polymorphic (neat) form
RH at which the form is the more stable form [4]: ≤ 16%
hygroscopicity ([1]; about 25 to about 75% RH at 25° C.): non-hygroscopic
aqueous solubility [5]: ≥ 28 µg/mL
solubility ratio (N-2 to H-1) ([5]; aqueous solubility, N-2 relative to H-1): ~4 ×
exposure for the N-2 relative to H-1 [9]: ~2 fold
chemical and physical stability in the solid-state [6, 10]: chemically and physically stable
form conversion (hydrate formation) on storage ([6]; stored 3 weeks or more at elevated temperature and humidity (e.g., 50° C./75% RH), in the presence of common filler excipients): no conversion
chemical and physical stability in the solid-state [6, 11]: chemically and physically stable
Structure (SMILES): Cc1ccc(C(=O)NC2CC2)cc1NC(=O)c1cnn(-c2ncccc2C(F)(F)F)c1C [Form N-2, N-(5-(cyclopropylcarbamoyl)-2-methylphenyl)-5-methyl-1-(3-(trifluoromethyl)pyridin-2-yl)-1H-pyrazole-4-carboxamide]
